Measured values reported in patent US20240108577A1, “CONTROLLED RELEASE OF […] A SOURCE MATERIAL” (Syqe Medical Ltd., priority 2022, published 2024).

Columns and labels:
[1] = Pre-packaging refrigeration stability of ground MC powder (5° C.±2° C., up to 12% RH), LOD and U-HPLC of phytocannabinoids; format: physicochemical; conditions: for change in phytocannabinoid concentration during storage: up to 3 months, one-way ANOVA
Protocol: In the described experiment, Bedrocan strain MC powder was stored at 5° C.±2° C. with up to 12% relative humidity (RH) in a polypropylene container, sealed in an aluminum foil pouch (Oliver-Tolas Healthcare Packaging B.V.; Venray, Netherlands). In order to assess its stability during the handling and hold time, samples were taken from three separate growing batches and assayed at baseline and at 1, 2 and 3 months post grinding. Each sample was assayed for loss on drying (LOD), and of the concentrations of the major phytocannabinoids (CBDA, CBD, CBGA, CBN, THCA and THC).
(§1) Analysis of cannabis inflorescences for the main phytocannabinoids (CBDA, CBD, CBGA, CBN, THCA and THC) was performed as follows: 100 mg of ground Cannabis inflorescences were weighed in duplicate from one container and extracted with 25 mL methanol then sonicated for 40 min and centrifuged at 3000 rpm for 5 min. All samples were filtered through a 0.22 μm PP filter vail prior to analysis. The dilution and quantitation were preformed corresponding to calibration curves. The main six phytocannabinoids were analyzed by ultra-high-performance liquid chromatography (UHPLC: […]) system with a refrigerated auto-sampler, thermostatic column oven and ultraviolet detector, Waters ACQUITY UPLC H-Class. Chromatographic separation was achieved using UPLC column Waters Acquity C18, 1.7 μm particles, 2.1×150 mm maintained at 30° C. The phytocannabinoids were separated using a gradient elution with mobile phases of 0.1% (v/v) formic acid in double-distilled water (phase A) and acetonitrile (phase B), respectively. A constant flow rate of 0.4 mL/min was employed throughout. The gradient profile varied from 70% to 100% B in 10.5 min, held for 0.5 min in these conditions and then returned to the initial conditions.
(§2) For THC and CBD, the concentrations of the acid and its neutral counterpart were summed and reported as the total content. For example, the concentration of total THC […] was calculated as: Total THC=THCA*0.877+THC, with 0.877 being the molar ratio between the two compounds that corrects for a change in the mass of THCA as a result of the loss of CO2 (decarboxylation). This is shown in FIG. 7A: “U-HPLC analysis of the Bedrocan cultivar”.
(§3) R software (V.1.1.463) with tidyverse (17) package was used to analyze changes in outcome measures by one way ANOVA test, using Fisher's exact test analysis. All analyses were followed by a Tukey post-hoc test for multiple comparison. Data are presented as Mean±95% confidence interval (CI). Differences were considered significant at the p<0.05 level.

[2] = Stability of Syqe cartridges stored at 30° C.±2° C. (65% RH±5% RH), LOD and U-HPLC; format: physicochemical; conditions: for change in phytocannabinoid amount during storage: 65% RH, up to 6 months, one-way ANOVA; for amounts detected at all time points: BL to 6 months
Protocol: Additionally, to assess the effects of a warmer temperature on MC, Syqe cartridges were stored post-production at an elevated temperature and humidity of 30° C.±2° C. (65% RH±5% RH). Three different growing batches were analyzed at baseline and at 1, 2, 4 and 6 months of storage.
as §1, §2, §3

[3] = Long-term stability of ground cannabis packaged in Syqe cartridges at 25° C.±2° C. (RH 60%±5%), LOD and U-HPLC; format: physicochemical; conditions: for change in phytocannabinoid amount during storage: RH 60%, up to 24 months, one-way ANOVA
Protocol: (§4) In some embodiments, once cartridges are produced, they are stored, distributed and used at RT. In order to assess the shelf life of such cartridges, a long-term stability study was performed, during which cartridges were stored at 25° C.±2° C. (RH 60%±5%) in a calibrated and certified stability chamber (Memmert Constant climate chamber HPP260). 9, 6, 9, 8, 7, 4 and 4 separate growing batches were tested at baseline and after 3, 6, 9, 12, 18 and 24 months, respectively. At each time point samples of the ground inflorescence within the cartridges were analyzed for LOD and for the amount (mg) of each of the major phytocannabinoids (CBDA, CBD, CBGA, CBN, THCA and THC). Of the same batches, THC aerosolized by the Syqe inhaler was analyzed at baseline and at 6, 9, 18 and 24 months.
as §1, §2, §3

[4] = Heating of ground cannabis samples to target temperatures 60-150° C.; vaporized THC measured in aerosol, residual terpenes by GC/MS; format: physicochemical; conditions: 135 mg ground cannabis, THC measured in the aerosol, FIG. 6A
Protocol: The vaporization plots in FIGS. 6A-B show results of an experiment performed by the inventors in which samples of 135 mg of ground cannabis were heated to several target temperatures, including 60° C., 70° C., 80° C., 90° C., 100° C., 110° C., 120° C., 130° C., 140° C. and 150° C. At each of the target temperatures, vaporized THC was measured in the aerosol. At each of the target temperatures, the residual mass of ground cannabis was analyzed using Gas Chromatography-Mass Spectrometry (GC/MS) to determine existence of terpenes, such as: Linalool, Isopulegol, Geraniol, Caryophyllene, […] Humulene<alpha-> and Nerolidol. The total terpenes residue (as remaining in the ground cannabis) is indicated by the dashed line in FIG. 6A. Based on the residual mass of terpenes, the released (vaporized) amount terpenes was calculated, by subtracting the measured residual mass from a respective reference mass.
As can be observed from FIG. 6A, THC (indicated by the continuous line) release started at a target temperature of 130 degrees C., and increased with the rising of the target temperature (up to 150 degrees C.).

[5] = after four years, room temperature (22 C), light or darkness (conditions A and B); cited from earlier work
[6] = THC dose aerosolized by the Syqe inhaler from cartridges stored at 25° C. up to 24 months; format: physicochemical; conditions: for aerosolized THC dose: inhaler set to 500 μg THC, mean±95% CI
Protocol: as §4
In some embodiments, the Syqe inhaler is preprogrammed with several distinct heating protocols. In some embodiments, each heating protocol is tailored to heat a VC and deliver an aerosol containing 250, 500, 750 or 1,000 μg or intermediate, larger or smaller amounts of THC to the user. In some embodiments, THC serves as an indicator for dose selection and is optionally delivered with an entourage of phytocannabinoids, terpenes and other molecules of the whole inflorescence that vaporize into the aerosol with it. […] Other dosage amounts are also to be contemplated, any may also serve as optimal dosing, depending on the need. For example, dosage amounts of between 50-5000 μg Δ^9-THC, 200-1000 μg Δ^9-THC, 50-500 μg Δ^9-THC, 1000-5000 μg Δ^9-THC, or intermediate, higher or lower ranges.
In the framework of the two-year stability study, samples were also taken for aerosolization using the Syqe Inhaler. The Syqe Inhaler was set to aerosolize 500 μg THC doses, in accordance with some embodiments. Data is provided only for time points in which three or more batches were tested (namely, BL and 6, 9, 18 and 24 months). […] BL, 6-, 9-, 18-, and 24-months' values were 484.76±31.28n, 486.30±50.56n, 563±22.06 μg, 597.94±16.75 μg and 554.67±36.00 μg, respectively. All aerosolized THC doses were well within the 500 μg±25% range (i.e., 375-625 μg) that apply to pharmaceutical grade inhalers (16).

CCCCCc1cc2c(c(O)c1C(=O)O)[C@@H]1C=C(C)CC[C@H]1C(C)(C)O2 (relative stereo) [THCA, (−)-Δ^9-trans-tetrahydrocannabinolic acid]
change in phytocannabinoid concentration during storage [1]: no significant change
change in phytocannabinoid amount during storage [2]: decreased significantly
change in phytocannabinoid amount during storage ([3]; 25° C.): decreased significantly

C=C(C)[C@@H]1CCC(C)=C[C@H]1c1c(O)cc(CCCCC)cc1O [CBD, Cannabidiol, reference compound]
concentration detected at all time points ([1]; BL to 3 months): mostly undetected
amounts detected at all time points [2]: mostly undetected
concentration detected at all time points ([3]; 25° C., BL to 24 months): mostly non-detected

C=C(C)[C@@H]1CCC(C)=C[C@H]1c1c(O)cc(CCCCC)c(C(=O)O)c1O [CBDA, Cannabidiolic acid]
change in phytocannabinoid concentration during storage [1]: no significant change
amounts detected at all time points [2]: mostly undetected
change in phytocannabinoid amount during storage ([3]; 25° C.): no significant change
pre-storage amount ([3]; before storage): ≤ 0.006 mg/sample

CCCCCc1cc(O)c(C/C=C(\C)CCC=C(C)C)c(O)c1C(=O)O [CBGA, Cannabigerolic acid]
change in phytocannabinoid concentration during storage [1]: no significant change
change in phytocannabinoid amount during storage [2]: decreased significantly
change in phytocannabinoid amount during storage ([3]; 25° C.): decreased significantly

CCCCCc1cc(O)c2c(c1)OC(C)(C)c1ccc(C)cc1-2 [CBN, Cannabinol]
change in phytocannabinoid concentration during storage [1]: no significant change
change in phytocannabinoid amount during storage [2]: increased significantly
change in phytocannabinoid amount during storage ([3]; 25° C.): increased significantly

CCCCCc1cc(O)c2c(c1)OC(C)(C)[C@@H]1CCC(C)=C[C@@H]21 [THC, (−)-Δ^9-trans-tetrahydrocannabinol]
change in phytocannabinoid concentration during storage [1]: no significant change
target temperature at which THC release started [4]: 130 degrees C.
THC degraded [5]: ~100%
change in phytocannabinoid amount during storage [2]: increased significantly
change in phytocannabinoid amount during storage ([3]; 25° C.): increased
change in phytocannabinoid amount during storage ([3]; 25° C., listed as Δ^9-THC): increased significantly
aerosolized THC dose ([6]; 6 months at 25° C.): 486.30±50.56 n
aerosolized THC dose ([6]; 9 months at 25° C.): 563 ± 22.06 µg
aerosolized THC dose ([6]; 18 months at 25° C.): 597.94 ± 16.75 µg
aerosolized THC dose ([6]; 24 months at 25° C.): 554.67 ± 36.00 µg
range within which all aerosolized THC doses remained ([6]; BL to 24 months at 25° C., 500 μg±25%): 375 to 625 µg
aerosolized THC dose ([6]; BL): 484.76±31.28 n
